Experimental data: patent US8580836B2, “Plant disease control composition and method of controlling plant disease” (Sumitomo Chemical Company, Limited, priority 2010, dated 2013)

Columns and labels:
Assay type in all cases: in vivo
Phakopsora pachyrhizi [1] = experiment: Test Example 5: test of effect on Phakopsora pachyrhizi on soybean, foliar spray; conditions: soybean (Natto shoryu), inoculated 14 days after spraying, lesion area of first trifoliate
Description: (§1) Based on the lesion areas in the treated plot and the non-treated plot, the effect of the treated plot was calculated according to the following formula (I). The results are shown in [Table 1]. Effect(%)=(1−(lesion area in treated plot)/(lesion area in non-treated plot))×100 formula (1)
(§2) Test of Effect on Phakopsora pachyrhizi
(§3) A plastic pot was stuffed with a soil, soybean (variety; Natto shoryu) was sown on this, and allowed to grow in a greenhouse until unfolding of the unifoliate. The present carboxamide compounds (2) and (3) and racemic N-(1,1,3-trimethylindan-4-yl)-1-methyl-3-difluoromethylpyrazole-4-carboxamide (hereinafter, referred to as racemic compound (B)) and racemic N-(1,1,3-trimethylindan-4-yl)-1,3,5-trimethylpyrazole-4-carboxamide (hereinafter, referred to as racemic compound (C)) were prepared into formulations according to Formulation Example 6, then, the formulations were diluted with water to attain a prescribed concentration, and sprayed to foliar part so as to satisfactorily adhere to the leaf surfaces of the soybean. The soybean was further cultivated at room temperature for 14 days, and grown until unfolding of the first trifoliate. The plant was inoculated with an aqueous suspension of Phakopsora pachyrhizi spores by spraying. After inoculation, the plant was allowed to stand under humid condition at 23° C. overnight, further, allowed to stand for 7 days at room temperature, then, the lesion area of the first trifoliate was checked.
Based on the lesion areas in the treated plot and the non-treated plot, the effect of the treated plot was calculated according to the above-described formula (I). The results are shown in [Table 2].

Phakopsora pachyrhizi [2] = experiment: Test Example 4: test of effect on Phakopsora pachyrhizi on soybean, foliar spray; conditions: 50 ppm; soybean (Natto shoryu); inoculated 14 days after spraying; lesion area of first trifoliate
Description: as §2
as §3, with “carboxamide” for “carboxamide compounds (2) and (3) and racemic N-(1,1,3-trimethylindan-4-yl)-1-methyl-3-difluoromethylpyrazole-4-carboxamide (hereinafter, referred to as racemic”, “compound (1) was” for “compound (B)) and racemic N-(1,1,3-trimethylindan-4-yl)-1,3,5-trimethylpyrazole-4-carboxamide (hereinafter, referred to as racemic compound (C)) were”, “cultivated in greenhouse” for “cultivated at room temperature”, “first trifolidate.” for “first trifoliate.”
as §1

[3] = tested on: Mycosphaerella graminicola (Septoria tritici); experiment: Test of effect of preventing Mycosphaerella graminicola (Septoria tritici) on wheat, foliar spray; conditions: 50 ppm foliar spray; wheat (Apogee); inoculated two days after spraying
Description: The control effect was evaluated by visually observing the area of a lesion on a test plant in investigation, and comparing the area of a lesion on a plant treated with a test composition and the area of a lesion on a non-treated plant.
Test of Effect of Preventing Mycosphaerella graminicola (Septoria tritici)
A plastic pot was stuffed with a soil, wheat (variety; Apogee) was sown on this, and allowed to grow in a greenhouse for 10 days. […] After spraying, the plant was air-dried, and two days after, inoculated with an aqueous suspension of Septoria tritici spores by spraying. After inoculation, the plant was first allowed to stand under humid condition at 18° C. for 3 days, further, allowed to stand for 14 to 18 days under illumination, then, the lesion area was checked. As a result, the lesion on the plant treated with the present carboxamide compounds (1), (2) and (3) was 10% or less of the lesion area on a non-treated plant.
The same test was carried out excepting the application concentration, using racemic N-(1,1,3-trimethylindan-4-yl)-1-methyl-3-trifluoromethylpyrazole-4-carboxylic amide (hereinafter, referred to as racemic compound (A)) instead of the present carboxamide compound. As a result, the lesion area on the plant treated with 50 ppm of the racemic compound (A) was 75% or more of the lesion area on a non-treated plant.

| Structure (SMILES) | Effect [%] (Phakopsora pachyrhizi [1]; 200 ppm) | Effect [%] (Phakopsora pachyrhizi [1]; 100 ppm) | other results |
| --- | --- | --- | --- |
| CC1CC(C)(C)c2cccc(NC(=O)c3cn(C)nc3C(F)F)c21 (racemic) [Racemic compound (B), N-(1,1,3-trimethylindan-4-yl)-1-methyl-3-difluoromethylpyrazole-4-carboxamide, reference compound] | 46.7% |  |  |
| C[C@@H]1CC(C)(C)c2cccc(NC(=O)c3cn(C)nc3C(F)F)c21 [present carboxamide compound (2), (R)-(−)-N-(1,1,3-trimethylindan-4-yl)-1-methyl-3-difluoromethylpyrazole-4-carboxamide] | 100% | 77.1% |  |
| Cc1nn(C)c(C)c1C(=O)Nc1cccc2c1[C@H](C)CC2(C)C [present carboxamide compound (3), (R)-(−)-N-(1,1,3-trimethylindan-4-yl)-1,3,5-trimethylpyrazole-4-carboxamide] | 100% | 98.4% |  |
| C[C@@H]1CC(C)(C)c2cccc(NC(=O)c3cn(C)nc3C(F)(F)F)c21 [present carboxamide compound (1), (R)-(−)-N-(1,1,3-trimethylindan-4-yl)-1-methyl-3-trifluoromethylpyrazole-4-carboxamide] |  |  | Effect [%] (Phakopsora pachyrhizi [2]): 98.1% |
| CC1CC(C)(C)c2cccc(NC(=O)c3cn(C)nc3C(F)(F)F)c21 (racemic) [racemic compound (A), N-(1,1,3-trimethylindan-4-yl)-1-methyl-3-trifluoromethylpyrazole-4-carboxylic amide] |  |  | lesion area on treated plant relative to lesion area on a non-treated plant [3]: ≥ 75% |
| Cc1nn(C)c(C)c1C(=O)Nc1cccc2c1C(C)CC2(C)C (racemic) [Racemic compound (C), N-(1,1,3-trimethylindan-4-yl)-1,3,5-trimethylpyrazole-4-carboxamide, reference compound] | 76.5% |  |  |
